The source of these data is ChEMBL document CHEMBL1157539, “Thousands of chemical starting points for antimalarial lead identification” (Nature, 2010).

The subject of the assay is Plasmodium falciparum. In words: GSK_TCMDC: Inhibition of Plasmodium falciparum 3D7 in whole erythrocytes, using parasite LDH activity as an index of growth. The settings on record: Plasmodium falciparum, 3D7. The assay is classed as functional, organism-based.
Consider `CN(C)c1ccc(/C=C2\S/C(=N\c3ccccc3)N(c3ccccc3)C2=O)cc1[N+](=O)[O-]`, for which the XC50 is 778 nM. `Cc1ccc2nc(C)cc(N/N=C/c3ccc([N+](=O)[O-])cc3)c2c1` yielded an XC50 of 793 nM. In turn, `Cc1[nH]c(C)c(-c2ccc(Oc3cccc(Cl)c3)cc2)c(=O)c1Cl` had an XC50 of 20.8 nM. Consider `N=C(N)c1ccc(C=Cc2ccc(C(=N)N)cc2O)cc1`, for which the XC50 worked out at 103 nM. The value for `CCCCCCCN1CCC(NC(=O)Nc2ccnc3ccc(OC)cc23)C(CO)C1` (centres undefined) was 176 nM. In the case of `O=C(CCc1c[nH]cn1)Nc1cccc(-c2ccc(-c3nc4cc(F)ccc4[nH]3)s2)c1`, the XC50 is 557 nM. Next, `COc1ccc(NC(=O)[C@H](CC(C)C)Nc2cc(C)nc(NCc3cccc(C)c3)n2)cc1`: 1020 nM. `COc1ccc2[nH]ccc(=NN=Cc3cccc(Cl)c3)c2c1` came in with an XC50 of 193 nM. For `Cc1cc(NCCC(=O)NCc2cccc(F)c2)nc(NCCc2ccc(F)cc2)n1`, the XC50 was found to be 1750 nM.

Turning to `c1ccc(CNCc2cccc(-c3cccc(-c4nc5ccccc5[nH]4)c3)c2)cc1`, the XC50 is 569 nM. `CCCCCCc1cc2cc(-c3nc(-c4ccc(OC)cc4)cs3)c(=O)oc2cc1O` returned an XC50 of 816 nM. Compound `CCC(CC)NCc1c(O)ccc2c(CNC(CC)CC)c(O)ccc12` registered an XC50 of 390 nM. As to `O=C(CCCCCNC(=O)c1ccc(O)c(-c2ccc(Cl)c(Cl)c2)c1)NCc1cccc(C(F)(F)F)c1`, the XC50 was found to be 731 nM.

`Cc1ccc(Cc2cccc3nc(N)nc(N)c23)cc1` had an XC50 of 1150 nM. `COc1ccc(C(=O)C2CC2CN(C)CC(O)c2cc(C)c(OC)cc2C)cc1` (centres undefined) registered an XC50 of 968 nM. `O=C(NC(=S)NCc1ccncc1)c1ccccc1` yielded an XC50 of 1690 nM. In turn, `CCOc1ccc(-c2nonc2NC(=O)c2ccc(Cl)cc2)cc1OCC` yielded an XC50 of 988 nM.

`COc1cc(OC)cc(-c2nnc(Sc3ccc(C#N)c([N+](=O)[O-])c3)n2C)c1` yielded an XC50 of 937 nM. With `COc1ccc(-c2cc3ncnc(N4CCN(CCN5CCCC5)CC4)c3s2)cc1`, the XC50 was 831 nM. Next, `O=C(C1CCN(C(c2ccccc2)c2ccc(Cl)c(Cl)c2)CC1)N1CC=CC1` (centres undefined): 725 nM; `CC[C@H](C)CNC(=O)c1cncc(-c2cccc(CNC3Cc4ccccc4C3)c2)c1`: 591 nM; `Cc1noc(C)c1-c1cccc(CNCc2ccc(-c3cccc(-c4nc5cc(F)ccc5[nH]4)c3)cc2)c1`: 545 nM. `COc1ccc(CCNC(=O)c2ccc(-n3cc(NC(=O)c4cccnc4)cn3)cc2)cc1OC` yielded an XC50 of 1070 nM. Next, `CC(C)(C)c1cc(C(=O)N2CCN(c3nccnc3C#N)CC2)n(Cc2ccccc2)n1`: 758 nM. On to `COCCN1CCN(Cc2ccc(-c3ccc(-c4nc5cccc(C)c5[nH]4)s3)cc2)CC1`, for which the XC50 worked out at 859 nM. Take `Cc1ccc(NC(=O)c2ccc3ncccc3c2)cc1OC1CCN(Cc2ccsc2)CC1`: the XC50 was determined as 930 nM. The compound `C#CCOc1ccc2ccccc2c1CNCCCCCCNCc1c(OCC#C)ccc2ccccc12` showed an XC50 of 780 nM.

`Cn1cc(CCNc2ccnc(N3CCC(c4ncc[nH]4)CC3)n2)c2ccccc21` came in with an XC50 of 1200 nM.

`CCCCCCN1CCCN(Cc2ccc(C(=O)Nc3ccc(C(C)C)cc3)cc2)CC1`: the XC50 came to 834 nM. `CCCCCCNC(=O)C1Cc2c([nH]c3cc(Cl)ccc23)C2(CCN(CCC)CC2)N1` (centres undefined) gave an XC50 of 880 nM.

In turn, `Cc1nc2nc(N)nc(N)c2c(C)c1Cc1ccccc1Cl` showed an XC50 of 112 nM.

On to `CCCCc1ccc2ncc(C(=O)OCC)c(O)c2c1`, for which the XC50 stood at 632 nM. `CC(C)CNCc1ccc(-c2ccc(CN(C(=O)NCCc3ccccc3)C3CCN(Cc4ccccc4)CC3)cc2)cc1` had an XC50 of 699 nM. Regarding `Cc1cc(NCCC(=O)Nc2ccccc2)nc(NCCc2cccs2)n1`, the XC50 came to 893 nM.

Turning to `N#Cc1ccc(N(CCOc2ccc(Cl)c(Cl)c2)Cc2ccccc2C(F)(F)F)cc1C(F)(F)F`, the XC50 is 1110 nM. `CC[C@H](C)CNC(=O)c1ccnc(-c2ccc(CN3CCC(N4CCCC4)CC3)cc2)c1`: the XC50 was 891 nM. Regarding `CCOC(=O)N1CCN(CCCCNc2c3ccc(Cl)cc3nc3ccc(OC)cc23)CC1`, the XC50 was 121 nM. With `COc1ccc(Cc2cnc3nc(N)nc(N)c3c2C)cc1OC`, the XC50 was determined as 9.41 nM. Consider `Cn1cccc1CCNCc1ccc(-c2cccc(-c3nc4ccccc4[nH]3)c2)cc1`, for which the XC50 turned out to be 1210 nM. Take `CC(C)(C)c1ccc(NC(=O)c2ccc(CN3CCCN(Cc4cccc(C#N)c4)CC3)cc2)cc1`: the XC50 is 641 nM. `CCOc1ccc2ccccc2c1C(=O)Nc1cc(C)nn1-c1nc(C)cc(=O)[nH]1`: the XC50 was 1010 nM. Regarding `CC(C)c1ccc(CN2CCCCC(NC(=O)c3cc(-c4ccccc4Cl)cs3)C2)cc1` (centres undefined), the XC50 worked out at 1120 nM.

With `CC(=O)Oc1cc(OCc2ccccc2)c(OC(C)=O)c(OCc2ccccc2)c1`, the XC50 was found to be 407 nM. As to `CC(C)CNCc1cccc(-c2cccc(CNc3ccc4ncccc4c3)c2)c1`, the XC50 came out at 947 nM.

`Nc1c2c(nc3ccc(NC(=O)CCCCCCc4ccccc4)cc13)CCCC2` gave an XC50 of 248 nM. `CC(C)CCNC(=O)C1Cc2c([nH]c3ccc(Br)cc23)C2(CCN(CCc3ccccc3)CC2)N1` (centres undefined) returned an XC50 of 688 nM.

For the compound `Cc1ccc(CC(C)NC[C@H](O)c2cccc(Cl)c2)cc1` (some centres undefined), the XC50 is 860 nM.

On to `OC(CNc1ccnc(Nc2ccccc2)n1)c1ccc(C(F)(F)F)cc1` (centres undefined), for which the XC50 amounted to 606 nM. In turn, `CC[C@H]1CN2CC[C@@H]1C[C@H]2[C@H](O)c1cc(-c2ccc(Cl)c(Cl)c2)nc2ccc(O)cc12` returned an XC50 of 262 nM.

Turning to `COc1cc(Cc2cnc(N)nc2N)c2c(c1OC)OC(C)(C)C=C2`, the XC50 stood at 1190 nM. Compound `Cc1nnsc1C(=O)Nc1ccc(-c2cccc(-c3nc4cc(C(F)(F)F)ccc4[nH]3)c2)cc1` gave an XC50 of 838 nM.

As for `COc1cc(Nc2nc(N)n(C(=O)c3ccc4c(c3)OCO4)n2)cc(OC)c1OC`, the XC50 is 1130 nM. `CN(C)CCCn1cc(C(=O)OC2CC3CCC(C2)N3C)c2cc(-c3ccccc3)ccc21` (centres undefined) registered an XC50 of 837 nM. Compound `O=C(/C=C/c1ccccc1Cl)Nc1ccc(Br)c(OCCN2CCN(CCN3CCCC3)CC2)c1` had an XC50 of 653 nM. In turn, `COc1ccc(NC(=O)Nc2ccc(-c3cccc(-c4nc5cccc(C)c5[nH]4)c3)cc2)cc1` came in with an XC50 of 142 nM. Consider `N#Cc1ccc(CN2CCC(Oc3ccc(NC(=O)c4cccs4)cc3Cl)CC2)cc1`, for which the XC50 amounted to 577 nM.

In the case of `COc1ccc(CCn2c(=N)c(C(=O)NCc3cccnc3)cc3c(=O)n4cccc(C)c4nc32)cc1`, the XC50 stood at 1400 nM. In turn, `Cc1ccc(C(C#N)c2ccc3c(C(F)(F)F)cc(C(F)(F)F)nc3n2)cc1` (centres undefined) yielded an XC50 of 700 nM. The value for `N=C(NCCc1ccc(Cl)cc1)c1ccc(Cl)c(Cl)c1` was 1100 nM; that for `CCN(CC)CCN1C(=O)c2oc3ccc(F)cc3c(=O)c2C1c1cccc(Cl)c1` (centres undefined) was 531 nM.

`CCOC(=O)c1ccc(NC(=O)N[C@@H](Cc2ccccc2)C(=O)NC2CCN(Cc3ccc(OCCCN(C)C)cc3)C2)cc1` (some centres undefined) displayed an XC50 of 702 nM. The compound `COc1cc(C(=O)N2CCOC(CCN3CCC4c5ccccc5CC43)(c3ccc(Cl)c(Cl)c3)C2)cc(OC)c1OC` (centres undefined) registered an XC50 of 529 nM.

In turn, `CCNc1cc(C)nc(Nc2ccc(NC(=O)c3ccc(OC)c(OC)c3)cc2)n1` gave an XC50 of 1070 nM. For `CN(CCc1ccccc1)c1ncc(-c2cccc(CNCCC3CCCN3C)c2)cn1` (centres undefined), the XC50 worked out at 870 nM. `Cc1cccc2nc(-c3cccc(-c4cccc(NC(=O)CNC(=O)c5ccc(O)cc5)c4)c3)[nH]c12`: the XC50 worked out at 990 nM. `c1cn(CCCNc2ncc(-c3ccsc3)c(-c3nccs3)n2)cn1` displayed an XC50 of 646 nM.

`Cc1ccc2c(NC(=O)Nc3ccc(N(C)C)cc3)cc(C)nc2c1` showed an XC50 of 820 nM. Compound `COc1cc2c(cc1OC)C(c1ccc(Br)cc1)CN(C)CC2` (centres undefined) returned an XC50 of 943 nM. `O=C(Nc1cccc([N+](=O)[O-])c1)Nc1cccc(C(F)(F)F)c1` gave an XC50 of 767 nM.

With `O=C(Nc1cccc(CN2CCCN(Cc3ccc4c(c3)OCO4)CC2)c1)c1cc2ccccc2s1`, the XC50 amounted to 990 nM. `CC(=O)Nc1ncc(C(=O)Nc2cccc(-c3cccc(-c4nc5cc(F)ccc5[nH]4)c3)c2)s1` registered an XC50 of 454 nM. The value for `Nc1ncc(-c2ccc(F)c(Cl)c2)c(N)n1` was 1230 nM. The compound `O=C(Nc1ccc(-c2oc(C(=O)NCCc3cccc(Cl)c3)cc2-c2ccncc2)cc1)Nc1cccc(Cl)c1` came in with an XC50 of 722 nM. For `Cc1noc(C)c1CN1Cc2ccccc2OC2(CCN(Cc3c[nH]c4cnccc34)CC2)C1`, the XC50 came to 1070 nM. The value for `COc1ccccc1CCNc1nc(C)cc(NCCC(=O)NCCOc2ccccc2)n1` was 1370 nM; that for `Cc1cc(N(C)CCN(C)C)nc(Nc2ccc(Br)cc2)n1` was 801 nM. As to `COCC(C)n1c(C)cc(C(=O)CSc2nnc(Nc3ccccc3)s2)c1C` (centres undefined), the XC50 came out at 736 nM. As for `O=C(C=Cc1ccc(Cl)c(Cl)c1)NCCCCCN1CCC(CCNC(=O)c2ccc3c(c2)OCO3)CC1`, the XC50 was found to be 693 nM.

Consider `COc1cc2nc(NCCn3nc(C)cc3C)nc(NCCc3ccccc3)c2cc1OC`, for which the XC50 stood at 436 nM. The value for `O=C(Nc1ccc(-c2cccc(-c3nc4cc(C(F)(F)F)ccc4[nH]3)c2)cc1)c1ccoc1` was 829 nM; that for `COc1ccc(Nc2nc(=Nc3ccccc3)nc(NN=Cc3cc(Cl)ccc3O)[nH]2)cc1` was 647 nM; that for `CC(C)c1ccc(NC(=O)NCC2CCCN(CCCCCNC(=O)/C=C/c3ccc(Cl)c(Cl)c3)C2)cc1` (centres undefined) was 806 nM. The value for `COCCOC(=O)C(=O)c1c(-c2ccccc2)c(-c2ccc(OC)c(OC)c2)c2c3cc(OC)c(OC)cc3ccn12` was 497 nM. For the compound `CN1CCc2cc(NC(=O)c3cc4ccccc4s3)cc(-c3ccccc3)c2CC1`, the XC50 was found to be 885 nM. In the case of `COc1ccc(CCN2CC[C@H](Nc3nc(-c4ccc(F)c(F)c4)nc4ccccc34)C2)cc1S(N)(=O)=O`, the XC50 came to 789 nM. For the compound `Cc1cccc2nc(-c3ccc(-c4ccc(NC(=O)Nc5ccc(Cl)c(Cl)c5)cc4)s3)[nH]c12`, the XC50 worked out at 176 nM.

`Cc1cc(NC2CCCC2)nc(Nc2ccccc2F)n1` returned an XC50 of 926 nM.

Compound `O=C(NCCc1ccccc1)N(Cc1ccccc1-c1cccc(CNCCc2ccccc2)c1)C1CCN(Cc2ccccc2)CC1` had an XC50 of 625 nM. Compound `Clc1ccc2c(N3CCCNCC3)ccnc2c1` displayed an XC50 of 482 nM.
